These results are taken from US9518038B2, “Condensation product of theanine derivative and carboxylic acid coumarin derivative, its intermediate, preparation method and use thereof” (SHANDONG YINGDONG YINGHAO BIOTECHNOLOGY, INC., priority 2012, dated 2016).

For assay [1], the target named is T1, EZH2 (Homo sapiens, UniProt Q15910).
T1 construct: the EZH2 enzyme was replaced with tumor protein extracts in each group; from tissue; host or cells: human tumour xenografts excised from treated nude mice
T1 sequence (Q15910 whole entry): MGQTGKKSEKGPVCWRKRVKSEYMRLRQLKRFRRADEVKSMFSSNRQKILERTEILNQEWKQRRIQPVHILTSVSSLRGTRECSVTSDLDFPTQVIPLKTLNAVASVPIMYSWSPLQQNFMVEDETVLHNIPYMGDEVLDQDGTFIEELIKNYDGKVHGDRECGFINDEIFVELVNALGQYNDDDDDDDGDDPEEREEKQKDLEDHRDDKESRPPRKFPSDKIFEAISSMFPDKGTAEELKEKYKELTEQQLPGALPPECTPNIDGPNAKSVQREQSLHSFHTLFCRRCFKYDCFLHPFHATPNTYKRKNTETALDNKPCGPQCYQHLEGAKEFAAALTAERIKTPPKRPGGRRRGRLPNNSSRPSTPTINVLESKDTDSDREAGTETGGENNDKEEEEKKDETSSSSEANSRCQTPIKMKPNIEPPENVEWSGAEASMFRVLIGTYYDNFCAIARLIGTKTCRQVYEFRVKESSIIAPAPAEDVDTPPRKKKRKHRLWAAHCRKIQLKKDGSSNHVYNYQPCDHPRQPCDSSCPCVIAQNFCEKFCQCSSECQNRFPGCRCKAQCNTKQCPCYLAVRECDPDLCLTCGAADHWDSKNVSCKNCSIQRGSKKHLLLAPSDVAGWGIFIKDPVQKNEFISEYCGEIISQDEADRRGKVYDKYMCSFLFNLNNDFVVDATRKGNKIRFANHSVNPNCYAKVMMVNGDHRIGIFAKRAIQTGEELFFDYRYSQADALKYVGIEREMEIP
T1 sequence (O75530 whole entry partner): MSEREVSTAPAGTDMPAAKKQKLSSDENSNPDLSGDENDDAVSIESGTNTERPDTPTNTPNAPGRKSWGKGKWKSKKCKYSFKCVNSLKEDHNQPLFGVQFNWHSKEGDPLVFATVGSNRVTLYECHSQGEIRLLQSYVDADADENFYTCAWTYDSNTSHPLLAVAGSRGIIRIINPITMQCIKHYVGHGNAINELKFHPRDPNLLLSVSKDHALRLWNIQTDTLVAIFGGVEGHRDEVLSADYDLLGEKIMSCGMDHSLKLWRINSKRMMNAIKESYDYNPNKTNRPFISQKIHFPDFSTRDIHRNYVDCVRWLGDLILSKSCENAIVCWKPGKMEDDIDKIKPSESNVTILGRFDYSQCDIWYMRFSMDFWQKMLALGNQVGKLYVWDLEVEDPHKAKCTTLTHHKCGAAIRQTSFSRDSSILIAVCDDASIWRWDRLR
T1 sequence (Q15022 whole entry partner): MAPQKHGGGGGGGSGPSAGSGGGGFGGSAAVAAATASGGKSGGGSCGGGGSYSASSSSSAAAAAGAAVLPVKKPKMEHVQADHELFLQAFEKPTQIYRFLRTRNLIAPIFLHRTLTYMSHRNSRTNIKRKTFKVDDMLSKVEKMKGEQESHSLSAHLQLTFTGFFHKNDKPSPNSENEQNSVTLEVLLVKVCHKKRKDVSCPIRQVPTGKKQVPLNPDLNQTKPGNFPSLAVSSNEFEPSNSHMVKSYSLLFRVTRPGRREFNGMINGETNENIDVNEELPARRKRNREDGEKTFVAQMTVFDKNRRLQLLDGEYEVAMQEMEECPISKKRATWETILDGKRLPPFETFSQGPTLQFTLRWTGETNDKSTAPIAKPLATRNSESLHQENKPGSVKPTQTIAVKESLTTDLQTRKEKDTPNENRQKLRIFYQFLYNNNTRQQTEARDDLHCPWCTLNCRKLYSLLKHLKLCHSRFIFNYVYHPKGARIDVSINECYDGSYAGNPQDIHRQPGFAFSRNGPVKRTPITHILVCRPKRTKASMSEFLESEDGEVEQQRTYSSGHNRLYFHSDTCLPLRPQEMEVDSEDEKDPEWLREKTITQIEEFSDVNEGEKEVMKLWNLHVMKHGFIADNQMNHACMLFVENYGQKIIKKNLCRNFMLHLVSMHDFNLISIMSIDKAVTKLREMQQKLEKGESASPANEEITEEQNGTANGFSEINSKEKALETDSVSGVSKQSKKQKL
Briefly: EZH2 enzyme activity in protein extracts of human tumor xenografts of treated mice (EZH2 Assay Kit). The assay is classed as in vivo. To be noted: tumors excised 6 h after medication, SAHA 25 mg/kg; for inhibition: read-out: decrease of EZH2 enzyme activity/inhibition rate. A general note: A xenograft is tissue or cells of one species grown in another, often human tumour cells in immunodeficient mice.

Assay [2] concerns the target T2, EZH2 (Mus musculus, UniProt Q61188).
T2 construct: the EZH2 enzyme was replaced with tumor protein extracts in each group; from tissue; host or cells: Lewis lung cancer tumours from treated mice
Nature of the assay: EZH2 enzyme activity in protein extracts of LLC tumors of treated mice (EZH2 Assay Kit). To be noted: mouse; LLC tumor grown in vivo; tumors excised 6 h after medication; SAHA 25 mg/kg; read-out: decrease of EZH2 enzyme activity/inhibition rate.

The next assay relates to p53. Nature of the assay: Western Blotting, increase of p53 level. Format: cell-based. The note with it: liver cancer cells, Lewis lung cancer cells and other cancer cell lines and tumor tissue protein lysates, 48 h treatment, read-out: Effective concentration to increase p53 by 50%. The source says:
(§1) Antibodies: primary antibodies of VEGFR, EGFR, c-Met, K-Ras, H-Ras, Akt, NF-κB, Cyclin D1, ER-alpha, Dvl-1, Dvl-2, Dvl-3, MMP-9, MMP2, β-catenin, Bcl-2, Bax, p53, p21, E-cadherin and Caspase3 protein, purchased from American Cell Signaling Technology Company and Santa Cruz Technology Company; and H3 acetylation, H4 acetylation and HDAC (HDAC3, HDAC4 and the like) Antibody Sample Kits, purchased from Cell Signaling Technology Company of the U.S.
(§2) (3) polyacrylamide gel electrophoresis (SDS-PAGE): an equal amount of protein lysate sample was used to separate protein, film transfer, and blocking, treated with appropriate primary antibodies and secondary antibodies in sequence, and the film was washed, then the color was developed with ECL kit, and a blot protein band was detected by exposure of an X-ray film; and a Gel-Pro Analyzer was used for quantitative analysis of gray degree, optical density value of the control group and the drug treatment group in various concentration were respectively compared with that of internal reference, the obtained ratios were respectively compared with the control group, and the protein expression level was semi-quantified.

Assay [3] deals with nucleoprotein factor NF-κB (p65)-DNA binding activity. Nature of the assay: NF-κB (p65)-DNA binding activity (EMSA). The assay is classed as cell-based. To be noted: EMSA, nuclear protein extracts, 48 h, read-out: Effective concentration for 50% inhibition of binding of nucleoprotein factor NF-kB (p65) and DNA. The source says: The in-vitro experiment of the inhibitory effect against the NF-κB(p65)-DNA binding activity was applied with the chemiluminescent EMSA kit of Pierce Biotechnology Company of the U.S., the experimental method was strictly operated according to the description of the kit and the specific procedure were as follows:
(1) Preparation of EMSA gel
The cells treated by the drugs were extracted by the nucleoprotein extract solution (provided by Beyotime Biotechnology of Institute) to obtain the nucleoprotein extracts, and 10 μg/pipe of the nucleoprotein extracts were respectively used for sample reaction and electrophoresis detection and analysis shown in the following table.
(2) Pre-electrophoresis: the gel was fixed in an electrophoresis tank, which was filled with a 0.5×TBE electrophoresis buffer solution, and electrophoresed under 10V/cm for 90 min. The probe binding reaction was as follows:
The components were added in sequence into the EP pipe according to the above table, uniformly mixed and stood at room temperature for 15 min to eliminate possible non-specific binding of probe and protein. 1 μl of biotin-labeled probe NF-κB was respectively added and stood at room temperature for 20 min.
(4) Film transfer: the process of transferring the nucleoprotein factors and the binding probe on the EMSA gel to the nylon film was electrically transferred under 380 mA in ice bath for 40 min.
(5) Ultraviolet cross-linking: the nylon film was placed under a 254 nm ultraviolet lamp and irradiated for 15 min.
(6) Detection of the biotin-labeled probe by chemiluminescence: the cross-linked nylon film was blocked with the blocking solution, a treated film was subjected to X-ray exposure, developing, and fixation according to the requirements of the kit, and the results were analyzed.
(Mobility shift assays separate free from complexed probe on a gel.)

Assay [4] relates to human liver cancer cells SMMC7721. Nature of the assay: MTT growth inhibition, SMMC7721 cells. Format: cell-based. The note with it: SMMC-7721, S-7721 (SMMC7721), 72 h after treatment, read-out: Drug concentration (IC50) at which 50% cancer cells survived. The source says: (§3) Cell lines and cell culture: human lung cancer cells A549 and H460, human breast cancer cells MCF-7 and MDA-MB-231, human gastric cancer cells BGC-823, human prostate cancer cells PC-3, human chronic leukemia cells K562, human lymphoma cells U937, human liver cancer cells SMMC7721 and HepG2, human colon cancer cells HT29, human pancreatic cancer cells PANC-1 and BxPC3, human cervical cancer Hela cell lines, human brain tumor cells Daoy, human neuroma cells D54 and human oral epidermoid cancer cells KBV200 line with strong drug resistance, mouse melanoma cells B16, and highly metastatic Lewis lung cancer cell lines were purchased from American Type Culture Collection of the U.S. These cells were cultured with DMEM and RPMI-1640 culture solutions separately.
(§4) The procedure was as follows:
(§5) (1) 0.25% trypsin was used to digest cancer cells in a logarithmic growth phase to prepare a single-cell suspension, the concentration of cells was adjusted to 5×10^4/mL, and the adjusted suspension was inoculated into a 96-well culture plate with 100 μl per well;
(§6) (2) The culture plate was transferred into a 37° C. incubator with a saturated humidity and 5% of CO2 and cultured for 24 h; the compounds and the intermediates thereof obtained in embodiments 1-7 and the compound as represented by formula (IIIa) or the positive control anti-cancer drug with the concentration of 1-1000 μM/L were added to enable the final concentration to be 0.1-1500 μM/L. Control wells (only added with 200 μl of cell suspension) and drug-free blank control wells (containing the solvent of 0.01% DMSO) were set, each group included 8 wells, and the plate was placed into the 37° C. incubator with saturated humidity and 5% of CO2 for culturing;
(§7) (3) The 96-well plate was taken out at 48 h and 72 h after dosing, the original culture medium was carefully removed by suction, 100 μl of serum-free DMEM culture medium and 10 μl of MTT (5 mg/mL) solution were added in each well. The plate was continuously cultured for another 4 h and then the culture was terminated;
(§8) (4) The supernatant in the wells was carefully removed by suction, each well was added with 150 μl of DMSO and shaked at room temperature for 10-15 min to fully dissolve crystals.
(§9) (5) Colorimetric analysis: the wavelength was selected as 570 nm, the light absorbance (A value) of each well was determined on the microplate reader and the results were recorded; the experiment was repeated for three times;
(§10) (6) the experimental results were calculated according to the following formula: relative survival rate=(A value of each experimental group/A value of cell control group)×100%
(§11) Calculation of median-effect concentration (IC50, namely the drug concentration at which the inhibition rate is 50%, also known as half inhibitory concentration):
(§12) IC50 of the detected component was calculated by using a regression equation.

The test system of assay [5] is human lung cancer cells A549. Briefly: MTT growth inhibition, A549 cells. Format: cell-based. To be noted: 72 h after treatment, read-out: Drug concentration (IC50) at which 50% cancer cells survived.
From the text: as §3, §4, §5, §6, §7, §8, §9, §10, §11, §12

Another assay relates to p21. Briefly: Western Blotting, increase of p21 level. The assay is classed as cell-based. To be noted: liver cancer cells, Lewis lung cancer cells and other cancer cell lines and tumor tissue protein lysates, 48 h treatment, read-out: Effective concentration to increase p21 by 50%.
From the text: as §1, §2

Assay [6] relates to human breast cancer cells MDA-MB-231. Nature of the assay: MTT growth inhibition, MDA-MB-231 cells. The assay is classed as cell-based. The note with it: 72 h after treatment, read-out: Drug concentration (IC50) at which 50% cancer cells survived.
From the text: as §3, §4, §5, §6, §7, §8, §9, §10, §11, §12

The subject of a further assay is Caspase3. Nature of the assay: Western Blotting, increase of Caspase3 level. The assay is classed as cell-based. The note with it: liver cancer cells, Lewis lung cancer cells and other cancer cell lines and tumor tissue protein lysates, 48 h treatment, read-out: Effective concentration to increase Caspase-3 by 50%.
From the text: as §1, §2
A general note: A western blot detects proteins with antibodies after separation by electrophoresis.

The subject of assay [7] is human liver cancer cells HepG2. Briefly: MTT growth inhibition, HepG2 cells. Format: cell-based. To be noted: 72 h after treatment, read-out: Drug concentration (IC50) at which 50% cancer cells survived.
From the text: as §3, §4, §5, §6, §7, §8, §9, §10, §11, §12

Another assay deals with E-cadherin. Nature of the assay: Western Blotting, increase of E-cadherin level. To be noted: liver cancer cells, Lewis lung cancer cells and other cancer cell lines and tumor tissue protein lysates, 48 h treatment, read-out: Effective concentration to increase E-cadherin by 50%. The assay is classed as cell-based.
From the text: as §1, §2

Values joined by “and” are separate entries in the source; they are usually repeats but may differ in a detail not shown here. Identical values can stand only once. Like-named read-outs stand apart in the source and are kept apart here.

T2 sequence (Q61188 whole entry): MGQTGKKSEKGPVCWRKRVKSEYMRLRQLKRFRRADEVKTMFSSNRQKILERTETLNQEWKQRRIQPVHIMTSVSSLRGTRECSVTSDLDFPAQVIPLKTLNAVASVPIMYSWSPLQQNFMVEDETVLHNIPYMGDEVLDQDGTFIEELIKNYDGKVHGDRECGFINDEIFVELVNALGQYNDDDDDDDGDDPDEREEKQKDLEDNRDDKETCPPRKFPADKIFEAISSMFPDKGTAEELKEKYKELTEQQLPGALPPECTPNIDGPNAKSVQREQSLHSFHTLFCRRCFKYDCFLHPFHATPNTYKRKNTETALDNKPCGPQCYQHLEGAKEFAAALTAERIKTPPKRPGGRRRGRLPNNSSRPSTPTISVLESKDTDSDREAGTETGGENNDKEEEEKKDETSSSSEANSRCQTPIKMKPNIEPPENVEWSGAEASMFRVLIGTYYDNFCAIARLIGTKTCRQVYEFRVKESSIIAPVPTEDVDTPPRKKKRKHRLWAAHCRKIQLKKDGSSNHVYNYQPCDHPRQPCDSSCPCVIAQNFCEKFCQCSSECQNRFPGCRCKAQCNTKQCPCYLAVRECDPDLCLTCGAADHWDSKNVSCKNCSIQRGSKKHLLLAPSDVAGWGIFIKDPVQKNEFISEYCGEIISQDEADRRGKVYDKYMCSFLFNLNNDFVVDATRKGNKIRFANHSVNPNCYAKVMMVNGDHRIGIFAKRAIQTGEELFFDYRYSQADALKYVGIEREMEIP
T2 sequence (Q921E6 whole entry partner): as the sequence (O75530 whole entry partner) above
T2 sequence (Q80U70 whole entry partner): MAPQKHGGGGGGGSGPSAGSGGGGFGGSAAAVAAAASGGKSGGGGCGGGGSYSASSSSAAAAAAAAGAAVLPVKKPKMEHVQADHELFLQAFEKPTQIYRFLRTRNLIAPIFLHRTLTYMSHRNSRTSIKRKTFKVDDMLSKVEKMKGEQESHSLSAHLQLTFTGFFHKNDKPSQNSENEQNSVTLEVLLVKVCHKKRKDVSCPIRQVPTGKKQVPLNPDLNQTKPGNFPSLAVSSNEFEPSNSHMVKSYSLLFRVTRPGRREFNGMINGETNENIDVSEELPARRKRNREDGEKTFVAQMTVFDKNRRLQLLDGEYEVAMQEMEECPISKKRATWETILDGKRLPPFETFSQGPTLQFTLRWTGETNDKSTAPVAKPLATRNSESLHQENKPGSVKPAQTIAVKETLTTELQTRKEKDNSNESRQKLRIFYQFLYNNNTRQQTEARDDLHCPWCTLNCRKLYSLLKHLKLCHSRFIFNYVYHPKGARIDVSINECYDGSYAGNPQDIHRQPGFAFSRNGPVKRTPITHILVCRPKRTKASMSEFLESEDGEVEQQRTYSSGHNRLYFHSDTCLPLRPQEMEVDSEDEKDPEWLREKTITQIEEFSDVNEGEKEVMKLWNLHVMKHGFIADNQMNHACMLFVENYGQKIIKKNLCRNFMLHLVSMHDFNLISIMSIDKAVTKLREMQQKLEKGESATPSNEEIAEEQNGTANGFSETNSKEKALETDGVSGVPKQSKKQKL

Take `O=C(CCCCCCC(=O)Nc1ccccc1)NO` [SAHA, suberoylanilide hydroxamic acid, reference compound]: the inhibition stood at 52% at EZH2 [1] (A549, A549 tumor grown in vivo); 52% at EZH2 [1] (MCF7, MCF7 tumor grown in vivo); 54% on EZH2 [1] (MDA-MB-231, MDA-MB231 tumor grown in vivo); 48% at EZH2 [1] (SMMC-7721, SMMC7721 tumor grown in vivo); 50% at EZH2 [2]. The “decrease of EZH2 enzyme activity/inhibition rate” value on EZH2 [1] (A549 tumor grown in vivo) was 53%*(A549)-; on EZH2 [1] (MCF7 tumor grown in vivo) it was 53%*(MCF7); at EZH2 [1] (MDA-MB231 tumor grown in vivo), 55%*(MDA-MB231); on EZH2 [1] (SMMC7721 tumor grown in vivo), 49%*(SMMC-7721); and 49%*(SMMC7721);.
With `CC[C@]1(O)C[C@H]2CN(CCc3c([nH]c4ccccc34)[C@@](C(=O)OC)(c3cc4c(cc3OC)N(C=O)[C@H]3[C@@](O)(C(=O)OC)[C@H](OC(C)=O)[C@]5(CC)C=CCN6CC[C@]43[C@@H]65)C2)C1` [Vincristine, reference compound], the EC50 in the assay with p53, with p21, in the assay on Caspase3 and in the assay on E-cadherin was greater than 70 µM each time. The IC50 in [3] (A549 cells), in [3] (Hela cells), in assay [3] (MCF7 cells), in [3] (MDA-MB231 cells), in assay [3] (PANC-1 cells) and in assay [3] (SMMC7721 cells) was greater than 70 µM throughout. Moreover, the IC50 was found to be 78 ± 30 µM in assay [4], 220 µM in assay [5], 130 µM in assay [6] and 37 µM in [7].
